From US10477864B2, “Microbiocidal quinoline (thio)carboxamide derivatives” (priority 2016, dated 2019)

Key:
[1] = tested on: Fusarium culmorum; experiment: microbe, parasite or virus in culture; type: cell-based; details: read-out: control of Fusarium culmorum
[2] = tested on: Glomerella lagenarium (Colletotrichum lagenarium); experiment: Glomerella lagenarium (Colletotrichum lagenarium) / liquid culture (anthracnose); type: cell-based; details: Colletotrichum orbiculare; read-out: control of Glomerella lagenarium
[3] = tested on: Fusarium culmorum; experiment: whole plant or invertebrate; type: in vivo; details: in Triticum aestivum, read-out: control of Fusarium culmorum
[4] = tested on: Botryotinia fuckeliana (Botrytis cinerea); experiment: Botryotinia fuckeliana (Botrytis cinerea) / liquid culture (gray mould); type: cell-based; details: 72 h, read-out: control of Botryotinia fuckeliana
[5] = tested on: Monographella nivalis (Microdochium nivale); experiment: Monographella nivalis (Microdochium nivale) / liquid culture (foot rot cereals); type: cell-based; details: 96 h, read-out: control of Monographella nivalis

| SMILES | melting point | inhibition of growth at 200 ppm [1] | inhibition of growth at 200 ppm [2] | pest or weed control at 200 ppm [3] | inhibition of growth at 200 ppm [4] | inhibition of growth at 200 ppm [5] |
| --- | --- | --- | --- | --- | --- | --- |
| Cc1cccc2ncc(C(=O)NC(C)(Cc3ccccc3)CC(F)(F)F)cc12 (stereo not drawn) [Compound E-86, N-(1-benzyl-3,3,3-trifluoro-1-methyl-propyl)-5-methyl-quinoline-3-carboxamide] | 101 to 103 °C | ≥ 80% | ≥ 80% | ≥ 80% | ≥ 80% | – |
| C/C=C/C(C)(Cc1ccccc1)NC(=O)c1cnc2ccccc2c1 (stereo not drawn) [Compound E-88, N-[(E)-1-benzyl-1-methyl-but-2-enyl]quinoline-3-carboxamide] | – | ≥ 80% | – | ≥ 80% | ≥ 80% | ≥ 80% |
| Cc1c(C(=O)NC(C)(Cc2ccccc2)CC(F)(F)F)cnc2c(F)cccc12 (stereo not drawn) [Compound E-90, N-(1-benzyl-3,3,3-trifluoro-1-methyl-propyl)-8-fluoro-4-methyl-quinoline-3-carboxamide] | 154 to 158 °C | ≥ 80% | ≥ 80% | ≥ 80% | ≥ 80% | – |
| C=CCC(Cc1ccccc1)(NC(=O)c1cnc2c(F)cccc2c1)C(F)(F)F (stereo not drawn) [Compound E-92, N-[1-benzyl-1-(trifluoromethyl)but-3-enyl]-8-fluoro-quinoline-3-carboxamide] | – | ≥ 80% | ≥ 80% | ≥ 80% | ≥ 80% | ≥ 80% |
| CC(Cc1ccccc1)(CC(F)(F)F)NC(=O)c1cnc2c(Cl)c(F)ccc2c1 (stereo not drawn) [Compound E-93, N-(1-benzyl-3,3,3-trifluoro-1-methyl-propyl)-8-chloro-7-fluoro-quinoline-3-carboxamide] | 150 to 152 °C | ≥ 80% | ≥ 80% | ≥ 80% | ≥ 80% | – |
| CC(C=C(F)F)(Cc1ccccc1)NC(=O)c1cnc2c(F)cccc2c1 (stereo not drawn) [Compound E-94, N-(1-benzyl-3,3-difluoro-1-methyl-allyl)-8-fluoro-quinoline-3-carboxamide] | 99 to 101 °C | ≥ 80% | ≥ 80% | ≥ 80% | ≥ 80% | – |
| CC(Cc1ccccc1)(CC(F)(F)Cl)NC(=O)c1cnc2c(F)cccc2c1 (stereo not drawn) [Compound E-97, N-(1-benzyl-3-chloro-3,3-difluoro-1-methyl-propyl)-8-fluoro-quinoline-3-carboxamide] | – | ≥ 80% | ≥ 80% | ≥ 80% | ≥ 80% | ≥ 80% |
| CC(Cc1ccccc1F)(CC(F)(F)F)NC(=O)c1cnc2c(F)cccc2c1 (stereo not drawn) [Compound E-98, 8-fluoro-N-[3,3,3-trifluoro-1-[(2-fluorophenyl)methyl]-1-methyl-propyl]quinoline-3-carboxamide] | 131 to 133 °C | ≥ 80% | ≥ 80% | ≥ 80% | ≥ 80% | – |
| Cc1c(F)ccc2cc(C(=O)NC(C)(Cc3ccccc3)CC(F)(F)F)cnc12 (stereo not drawn) [Compound E-100, N-(1-benzyl-3,3,3-trifluoro-1-methyl-propyl)-7-fluoro-8-methyl-quinoline-3-carboxamide] | 127 to 129 °C | ≥ 80% | ≥ 80% | ≥ 80% | ≥ 80% | – |
| CCC(Cc1ccccc1)(CC(F)(F)F)NC(=O)c1cnc2c(F)cccc2c1 (stereo not drawn) [Compound E-101, N-(1-benzyl-1-ethyl-3,3,3-trifluoro-propyl)-8-fluoro-quinoline-3-carboxamide] | 127 to 129 °C | ≥ 80% | ≥ 80% | ≥ 80% | ≥ 80% | – |
| CC(Cc1ccccc1)(CC(F)(F)F)NC(=O)c1cnc2c(F)c(F)ccc2c1 (stereo not drawn) [Compound E-102, N-(1-benzyl-3,3,3-trifluoro-1-methyl-propyl)-7,8-difluoro-quinoline-3-carboxamide] | 158 to 160 °C | ≥ 80% | ≥ 80% | ≥ 80% | ≥ 80% | – |
| Cc1c(C(=O)NC(C)(Cc2ccccc2)CC(F)(F)F)cnc2c(Cl)cccc12 (stereo not drawn) [Compound E-104, N-(1-benzyl-3,3,3-trifluoro-1-methyl-propyl)-8-chloro-4-methyl-quinoline-3-carboxamide] | 184 to 186 °C | ≥ 80% | ≥ 80% | ≥ 80% | ≥ 80% | – |
| CC(C)CC(C)(Cc1ccccc1)NC(=O)c1cc2cccc(F)c2nc1Cl (stereo not drawn) [Compound E-106, N-(1-benzyl-1,3-dimethyl-butyl)-2-chloro-8-fluoro-quinoline-3-carboxamide] | 106 to 108 °C | ≥ 80% | ≥ 80% | ≥ 80% | ≥ 80% | – |
| Cc1nc2c(C#N)cccc2cc1C(=O)NC(C)(Cc1ccccc1)CC(F)(F)F (stereo not drawn) [Compound E-113, N-(1-benzyl-3,3,3-trifluoro-1-methyl-propyl)-8-cyano-2-methyl-quinoline-3-carboxamide] | 136 to 140 °C | ≥ 80% | ≥ 80% | ≥ 80% | ≥ 80% | – |
| CCOC(OCC)C(C)(Cc1ccccc1)NC(=O)c1cnc2c(F)cccc2c1 (stereo not drawn) [Compound E-116, N-(1-benzyl-2,2-diethoxy-1-methyl-ethyl)-8-fluoro-quinoline-3-carboxamide] | – | ≥ 80% | – | – | ≥ 80% | ≥ 80% |
| CON=CC(C)(Cc1ccccc1)NC(=O)c1cnc2c(F)cccc2c1 (stereo not drawn) [Compound E-117, N-(1-benzyl-2-methoxyimino-1-methyl-ethyl)-8-fluoro-quinoline-3-carboxamide] | – | ≥ 80% | – | – | ≥ 80% | ≥ 80% |
| COCCC(C)(Cc1ccccc1)NC(=O)c1cnc2c(F)cccc2c1 (stereo not drawn) [Compound E-121, N-(1-benzyl-3-methoxy-1-methyl-propyl)-8-fluoro-quinoline-3-carboxamide] | – | ≥ 80% | – | – | ≥ 80% | ≥ 80% |
| C=C(C)C[C@@](C)(Cc1ccccc1)NC(=O)c1cnc2c(F)cccc2c1 [Compound F-9, N-[(1S)-1-benzyl-1,3-dimethyl-but-3-enyl]-8-fluoro-quinoline-3-carboxamide] | – | ≥ 80% | ≥ 80% | ≥ 80% | ≥ 80% | ≥ 80% |
| Cc1c(C(=O)N[C@](C)(Cc2ccccc2)CC(F)(F)F)cnc2c(F)cccc12 [Compound F-30, N-[(1R)-1-benzyl-3,3,3-trifluoro-1-methyl-propyl]-8-fluoro-4-methyl-quinoline-3-carboxamide] | – | ≥ 80% | ≥ 80% | – | ≥ 80% | ≥ 80% |
